Test results published in article PMC11540844, “Enhancing transcription–replication conflict targets ecDNA-positive cancers” (Nature, 2024).
Read-outs that look alike come from different tables or passages of the source.

What was measured:
COLO320HSR cells = assay: Cell viability / CTG proliferation (CellTiter-Glo); type: cell-based, human; settings: Homo sapiens, COLO-320-HSR; Extended Data Fig. 8
Protocol: (§1) Cell viability assay was performed using CellTiter-Glo (Promega, catalgoue no. G8461) as previously described. Briefly, cells were seeded into a 384-well plate one day before adding inhibitors. Equal volumes of vehicles or drugs diluted at indicated concentration were added into each well the next day, and the cells were incubated for three days. On the third day, after equilibrating plate and CellTiter-Glo reagent at room temperature for 30 min, reagent was added into each well and incubated for 15 min at room temperature. Luminescence was measured using a Synergy 2 microplate reader. Four biological replicates were performed for each condition. Data analysis was performed with GraphPad Prism (v.9.1.0).

COLO320DM cells = assay: Cell viability / CTG proliferation (CellTiter-Glo); type: cell-based, human; settings: for IC50: Homo sapiens, COLO 320DM
Protocol: as §1

GBM39HSR cells = assay: Cell viability (CellTiter-Glo); type: cell-based, human; settings: Homo sapiens; Extended Data Fig. 8
Protocol: as §1

GBM39ec cells = assay: Cell viability (CellTiter-Glo); type: cell-based, human; settings: Homo sapiens; Extended Data Fig. 8
Protocol: as §1

SNU16 cells = assay: Cell viability (CellTiter-Glo); type: cell-based, human; settings: Homo sapiens, SNU-16; Extended Data Fig. 8; read-out: IC50 SNU16
Protocol: as §1, with “(v.9.1.0). […]” for “(v.9.1.0).”

pCHK1-S345 in HT29 cells = assay: AlphaLISA SureFire Ultra p-CHK1 (Ser345) assay in HT29 cells; type: cell-based; settings: Homo sapiens, HT-29, 16 h, read-out: CHK1 cellular potency AlphaLisa (IC50)
Protocol: Compound activity in cells was measured using an AlphaLISA SureFire Ultra p-CHK1 (Ser345) assay (Perkin Elmer, catalogue no. ALSU-PCHK1-A10K). HT29 cells were cultured in McCoy 5 A medium with 10% FBS and 1% penicillin-streptomycin and seeded to 96-well plates (Corning, catalogue no. 3599). Compounds were serially diluted in DMSO over a 10-point dose range with 3-fold dilution, and compound solution was added to each well containing cells. Plates were centrifuged at 1,000 rpm for 30 s. Plates were incubated at 37 °C for 16 h. Supernatant was removed by flicking the plate against a paper towel. Wells were washed once with PBS solution. To each well was added freshly prepared lysis buffer and plates were agitated on a plate shaker at 400 rpm for 30 min. The 96-well cell plates were centrifuged at 1,500 rpm for 1 min. From each well was transferred 10 µl of the lysates to a 384-well Optiplate (Perkin Elmer, catalogue no. 6007290). To each well was added Acceptor Mix (5 µl) and the plates were sealed and wrapped in foil. Plates were agitated on a plate shaker for 2 min, then incubated at room temperature for 1 h. To each well was added Donor Mix (5 µl) and the plates were sealed and wrapped in foil. Plates were agitated on a plate shaker for 2 min, then incubated at room temperature for 1 h. AlphaLisa signal was read on an EnVision multimode plate reader (Perkin Elmer). […]

[1] = tested on: γH2AX in COLO320DM and COLO320HSR cells; assay: γH2AX IF combined with EdU labelling; type: cell-based, human; settings: XL413 combined with CHIR-124
Protocol: (§2) Coverslips were coated with 100 µg ml^−^1 poly-L-lysine overnight or 10 µg ml^−^1 laminin for 1 h at 37 °C before seeding cells. Asynchronized cells were seeded onto slides and subject to different treatment. Where indicated, EdU was added to each well at 10 µg ml^−^1 30 min before collecting samples. IF and dual-IF DNA FISH staining were performed as described before. Briefly, slides were fixed with ice-cold 4% paraformaldehyde (PFA) for 15 min, followed by permeabilization with 0.5% Triton X-100 in PBS for 15 min at room temperature. Samples were blocked with 3% BSA in PBS for 1 h at room temperature before incubation with primary antibody diluted in blocking buffer at 4 °C overnight. Dilution ratio for first antibodies was as follows: γH2Ax, 1:500; pRPA2-S33, 1:1,000; pCHK1S345, 1:250; 53BP1, 1:500; cyclin A, 1:100; pRNAPII S2/S4, 1:1,000. […]
(§3) Image analysis and quantification were performed using the open-source software CellProfiler (v.4.2.1). For foci number analysis, DAPI staining, IF staining and DNA FISH channel were analysed through automatic thresholding and segmentation to cell nuclei, pRPA2S33/γH2AX foci and DNA FISH foci respectively. […] For fluorescence intensity measurement, nuclei were called based on DAPI channel through automatic thresholding and segmentation; mean fluorescence intensity was retrieved by measuring mean fluorescence intensity within each nucleus.

[2] = tested on: RS on HSR in GBM39HSR cells; assay: pRPA2-S33 IF combined with EGFR FISH; type: cell-based, human
Protocol: as §2, §3

[3] = tested on: RS on ecDNA in GBM39ec cells; assay: pRPA2-S33 IF combined with EGFR FISH; type: cell-based, human
Protocol: as §2, §3

[4] = tested on: pRNAPII S2/S4 in COLO320DM and COLO320HSR cells; assay: Active RNA polymerase II IF; type: cell-based, human; settings: triptolide treatment
Protocol: as §2, §3

[5] = tested on: ssDNA on ecDNA amplicon in COLO320DM and COLO320HSR cells; assay: KAS-seq (ssDNA mapping); type: cell-based, human; settings: triptolide treatment
Protocol: KAS-seq experiments were carried out as previously described[12] with modifications. Briefly, cell culture media was supplemented with 5 mM N3-kethoxal (final concentration), and cells were incubated for 10 min at 37 °C in a six-well plate. Genomic DNA was then extracted using the Monarch gDNA Purification Kit (NEB T3010S) following the standard protocol but with elution using 50 µl 25 mM K3BO3 at pH 7.0. Click reaction was carried out by mixing 87.5 µl purified DNA, 2.5 µl 20 mM DBCO-PEG4-biotin (dimethylsulfoxide (DMSO) solution, Sigma, catalogue no. 760749) and 10 µl 10× PBS in a final volume of 100 µl. The reaction was then incubated at 37 °C for 90 min. DNA was purified using AMPure XP beads by adding 50 µl beads per 100 µl reaction, washing beads on a magnetic stand twice with 80% EtOH and eluting in 130 µl 25 mM K3BO3. Purified DNA was then sheared using a Covaris E220 instrument down to around 200–400 bp size. […]
Libraries were sequenced in a paired-end format on an Illumina NextSeq instrument using NextSeq 550 High-Output Kits (2 × 36 cycles). […] Duplicate reads were removed using picard-tools (v.1.99). […]

[6] = tested on: pRPA2-S33 foci in COLO320HSR cells; assay: pRPA2-S33 IF (replication stress); type: cell-based, human
Protocol: as §2, §3

[7] = tested on: pRPA2-S33 foci in COLO320DM cells; assay: pRPA2-S33 IF (replication stress); type: cell-based, human
Protocol: as §2, §3

[8] = Extended Data Fig. 8, read-out: IC50 COLO320DM

COc1cc2nc(-c3cc(F)ccc3O)nc(N[C@@H]3CNC[C@H]3C(C)(C)O)c2cc1OC [CCT241533] was tested, and the IC50 (COLO320HSR cells) was 4890 nM, the “differential inhibitory effect between ecDNA+ and ecDNA− isogenic cell lines” value (COLO320DM cells; COLO320DM vs COLO320HSR viability, Extended Data Fig. 8a) was “no differential inhibitory effect” and the IC50 (COLO320DM cells; [8]) was 3740 nM.

Molecule COc1cccc(OCCCN)c1-c1cc(Nc2cnc(C#N)cn2)n[nH]1 [Ly2606368] has an IC50 (COLO320HSR cells) of 78.1 nM, an IC50 (COLO320DM cells; [8]) of 34.1 nM and an IC50 (GBM39HSR cells) of 66.1 nM. For the same molecule, the IC50 (GBM39ec cells) was 48.8 nM and the IC50 (SNU16 cells) was 8.48 nM.

N#Cc1cnc(Nc2cc(NC[C@H]3CNCCO3)c(C(F)(F)F)cn2)cn1 [SRA737] showed an IC50 (COLO320HSR cells) of 24700 nM, an IC50 (COLO320DM cells; COLO320DM cells, read-out: CTG proliferation ecDNA+ (IC50)) of 1010 nM and an IC50 (COLO320DM cells; [8]) of 1110 nM. The IC50 (pCHK1-S345 in HT29 cells) was 1500 nM.

With O=c1[nH]c(C2CCCN2)nc2c1oc1ccc(Cl)cc12 (stereo not shown) [XL413] the “effect on DNA damage induced by CHK1i (γH2AX IF)” value [1] was “partially blocked”.

In the case of CC(C)[C@]12O[C@H]1[C@@H]1O[C@]13[C@]1(O[C@H]1C[C@H]1C4=C(CC[C@@]13C)C(=O)OC4)[C@@H]2O [triptolide], the “RS on HSR (pRPA2-S33 IF and EGFR FISH)” value [2] is reported as “no obvious difference”, the “RS on ecDNA (pRPA2-S33 IF and EGFR FISH)” value [3] is reported as “significantly decreased” and the “transcriptional activity (active RNA polymerase II by IF)” value [4] is reported as “significantly decreased”. The “ssDNA signals across the ecDNA amplicon (KAS-seq)” value [5] was “drastic reduction”, the pRPA2-S33 foci [6] was “negligible effect” and the pRPA2-S33 foci [7] was “significantly decreased”.
